Assay results taken from PubChem BioAssay AID330 (DTP/NCI, 2004).
Values joined by “and” are separate entries in the source; they are usually repeats but may differ in a detail not shown here. Identical values can stand only once. Toxic doses and inconclusive results are not listed. How the source made its calls: active means survival T/C of 150% or more; inactive means T/C below 125% in these data. Peptide text beside a SMILES is read from it. * marks the point of attachment. Boc = CC(C)(C)OC(=O)*

Test system: P388 leukemia ip, CD2F1 mice, survival T/C
Assay: NCI In Vivo Anticancer Drug Screen. Data for tumor model P388 Leukemia (intraperitoneal) in CD2F1 (CDF1) mice
Conditions: endpoint: median survival time, higher = longer survival
Method in brief: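 Mice carrying the transplanted tumor received test compound or vehicle. Survival was recorded in each group, and the value is the treated-group measurement divided by that of the vehicle-treated control group.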

[1] = dose: 15.0 mg/kg/injection, schedule: Q01DX005 (ip), vehicle: saline with Tween-80
[2] = dose: 30.0 mg/kg/injection, schedule: Q01DX005 (ip), vehicle: saline with Tween-80
[3] = dose: 50.0 mg/kg/injection, schedule: Q01DX005 (ip), vehicle: Klucel (hydroxypropylcellulose) (HPC)
[4] = dose: 100.0 mg/kg/injection, schedule: Q01DX005 (ip), vehicle: Klucel (hydroxypropylcellulose) (HPC)
[5] = dose: 200.0 mg/kg/injection, schedule: Q01DX005 (ip), vehicle: Klucel (hydroxypropylcellulose) (HPC)
[6] = dose: 50.0 mg/kg/injection, schedule: Q01DX009 (ip), vehicle: Klucel (hydroxypropylcellulose) (HPC)
[7] = dose: 100.0 mg/kg/injection, schedule: Q01DX009 (ip), vehicle: Klucel (hydroxypropylcellulose) (HPC)
[8] = dose: 200.0 mg/kg/injection, schedule: Q01DX009 (ip), vehicle: Klucel (hydroxypropylcellulose) (HPC)
[9] = dose: 60.0 mg/kg/injection, schedule: Q01DX005 (ip), vehicle: saline with Tween-80
[10] = dose: 120.0 mg/kg/injection, schedule: Q01DX005 (ip), vehicle: saline with Tween-80
[11] = dose: 240.0 mg/kg/injection, schedule: Q01DX005 (ip), vehicle: saline with Tween-80
[12] = dose: 50.0 mg/kg/injection, schedule: Q01DX009 (ip), vehicle: saline with Tween-80
[13] = dose: 200.0 mg/kg/injection, schedule: Q01DX009 (ip), vehicle: saline with Tween-80

Measured: T/C

O=C(O)CCCC(=O)NC1CC2c3ccccc3C1c1ccccc12 (centres undefined)
inactive: dose: 75.0 mg/kg/injection, schedule: Q01DX009 (ip), vehicle: saline with Tween-80 100 % of control | dose: 100.0 mg/kg/injection, schedule: Q04DX003 (ip), vehicle: saline sonified 100 % of control | dose: 150.0 mg/kg/injection, schedule: Q01DX009 (ip), vehicle: saline with Tween-80 100 % of control | dose: 200.0 mg/kg/injection, schedule: Q04DX003 (ip), vehicle: saline sonified 105 % of control | dose: 400.0 mg/kg/injection, schedule: Q04DX003 (ip), vehicle: saline sonified 100 % of control

Clc1ccc(CN2COc3c(cc(Cl)c4cccnc34)C2)cc1Cl
inactive: dose: 100.0 mg/kg/injection, schedule: Q04DX003 (ip), vehicle: Klucel (hydroxypropylcellulose) (HPC) 97 % of control | dose: 200.0 mg/kg/injection, schedule: Q04DX003 (ip), vehicle: Klucel (hydroxypropylcellulose) (HPC) 97 % of control | dose: 400.0 mg/kg/injection, schedule: Q04DX003 (ip), vehicle: Klucel (hydroxypropylcellulose) (HPC) 89 % of control

CCC(c1ccc(O)cc1)C(CC)c1ccc(OC)cc1 (centres undefined)
inactive: dose: 100.0 mg/kg/injection, schedule: Q04DX003 (ip), vehicle: saline with Tween-80 104 % of control | dose: 200.0 mg/kg/injection, schedule: Q04DX003 (ip), vehicle: saline with Tween-80 86 % of control

O=[N+]([O-])c1ccc(N2CCN(c3ccccc3)CC2)c2nonc12
inactive: dose: 50.0 mg/kg/injection, schedule: Q01DX009 (ip), vehicle: suspension in saline 100 % of control | dose: 100.0 mg/kg/injection, schedule: Q01DX009 (ip), vehicle: suspension in saline 99 % of control | dose: 200.0 mg/kg/injection, schedule: Q01DX009 (ip), vehicle: suspension in saline 99 % of control and 100 % of control

[CH3][Sn]([CH3])([Cl])[CH2]CC[CH2][Sn]([Cl])([Cl])[Cl]
inactive: dose: 6.25 mg/kg/injection, schedule: Q01DX009 (ip), vehicle: saline 110 % of control | dose: 12.5 mg/kg/injection, schedule: Q01DX009 (ip), vehicle: saline 99 % of control

O=c1ncc(F)cn1C1OC(CO)C(O)C1O (centres undefined)
inactive: dose: 1.5 mg/kg/injection, schedule: Q01DX009 (ip), vehicle: Klucel (hydroxypropylcellulose) (HPC) 106 % of control | dose: 3.0 mg/kg/injection, schedule: Q01DX009 (ip), vehicle: Klucel (hydroxypropylcellulose) (HPC) 87 % of control | dose: 6.0 mg/kg/injection, schedule: Q01DX009 (ip), vehicle: Klucel (hydroxypropylcellulose) (HPC) 86 % of control

CC(C)(C)C1=CC(=CC=C2C=CN(CCO)C=C2)C=C(C(C)(C)C)C1=O
inactive: dose: 7.5 mg/kg/injection, schedule: Q01DX005 (ip), vehicle: saline with Tween-80 105 % of control | [1] 98 % of control | [2] 104 % of control

Clc1ccc2c(c1)nc(-c1ccccn1)n2CCc1ccccn1
inactive: dose: 25.0 mg/kg/injection, schedule: Q01DX005 (ip), vehicle: Klucel (hydroxypropylcellulose) (HPC) 99 % of control | [3] 104 % of control | [4] 101 % of control | [5] 93 % of control

O=C1C(c2ccccc2)=C(c2ccccc2)C(=O)N1c1ccccn1
inactive: [6] 94 % of control | [7] 105 % of control | [8] 103 % of control

O=C(NCCN1C(=O)C2C3CCC(O3)C2C1=O)Nc1ccc([N+](=O)[O-])cc1[N+](=O)[O-] (centres undefined)
inactive: [9] 91 % of control | [10] 91 % of control

CC[n+]1c(-c2ccccc2)c2cc(N)ccc2c2ccc(N)cc21 (tested in a mixture with another compound)
inactive: dose: 5.0 mg/kg/injection, schedule: Q01DX005 (ip), vehicle: other 102 % of control | dose: 10.0 mg/kg/injection, schedule: Q01DX005 (ip), vehicle: other 112 % of control | dose: 20.0 mg/kg/injection, schedule: Q01DX005 (ip), vehicle: other 102 % of control | dose: 40.0 mg/kg/injection, schedule: Q01DX005 (ip), vehicle: other 109 % of control | dose: 80.0 mg/kg/injection, schedule: Q01DX005 (ip), vehicle: other 119 % of control

CSCCC(NC(=O)OC(C)(C)C)C(=O)NC(CCSC)C(=O)NC(C)C(=O)O (stereo not drawn) (Boc-Met-Met-Ala-OH; configuration not given here)
inactive: [3] 98 % of control | [4] 102 % of control | [5] 102 % of control

Cn1c2ccccc2c(=O)c2cc(NC(=O)CCCCC(=O)Nc3ccc4c(c3)c(=O)c3ccccc3n4C)ccc21
inactive: [9] 101 % of control | [10] 107 % of control | [11] 101 % of control

O=C(/C=C/c1ccc(Cl)cc1)c1ccccc1O
inactive: dose: 25.0 mg/kg/injection, schedule: Q01DX009 (ip), vehicle: saline with Tween-80 98 % of control | [12] 103 % of control | dose: 100.0 mg/kg/injection, schedule: Q01DX009 (ip), vehicle: saline with Tween-80 107 % of control | [13] 100 % of control

COc1cc([N+](=O)[O-])cc2c1OC1(C=C2)Oc2ccccc2N1C (centres undefined)
inactive: dose: 15.0 mg/kg/injection, schedule: Q01DX005 (ip), vehicle: Klucel (hydroxypropylcellulose) (HPC) 103 % of control | dose: 30.0 mg/kg/injection, schedule: Q01DX005 (ip), vehicle: Klucel (hydroxypropylcellulose) (HPC) 100 % of control | dose: 60.0 mg/kg/injection, schedule: Q01DX005 (ip), vehicle: Klucel (hydroxypropylcellulose) (HPC) 94 % of control | dose: 120.0 mg/kg/injection, schedule: Q01DX005 (ip), vehicle: Klucel (hydroxypropylcellulose) (HPC) 100 % of control

COc1ccc(O)c(C(C)=O)c1
inactive: [3] 102 % of control | [4] 100 % of control | [5] 98 % of control

O=C(CCCl)Nc1cccc(CCC(=O)c2cccc(NC(=O)CCCl)c2)c1
inactive: [1] 103 % of control | [2] 103 % of control | [9] 102 % of control and 103 % of control | [10] 103 % of control | [11] 110 % of control

CN=C(N)N/N=C(/C)c1ccc2c(c1)Cc1cc(I)ccc1-2
inactive: dose: 25.0 mg/kg/injection, schedule: Q04DX002 (ip), vehicle: saline with Tween-80 106 % of control | dose: 50.0 mg/kg/injection, schedule: Q04DX002 (ip), vehicle: saline with Tween-80 100 % of control | dose: 100.0 mg/kg/injection, schedule: Q04DX002 (ip), vehicle: saline with Tween-80 107 % of control

C[C@H]1C(=O)N(C)C(=O)[C@@H]1N
inactive: dose: 50.0 mg/kg/injection, schedule: Q01DX005 (ip), vehicle: saline 97 % of control | dose: 100.0 mg/kg/injection, schedule: Q01DX005 (ip), vehicle: saline 97 % of control | dose: 200.0 mg/kg/injection, schedule: Q01DX005 (ip), vehicle: saline 95 % of control

CCCCCCCCC#CCCCCCCCCCCCC(=O)O
inactive: [12] 88 % of control | [13] 90 % of control

O=C(O)/C=C\C(=O)O
inactive: dose: 1.5 mg/kg/injection, schedule: Q01DX009 (ip), vehicle: saline with Tween-80 95 % of control | dose: 3.0 mg/kg/injection, schedule: Q01DX009 (ip), vehicle: saline with Tween-80 100 % of control | dose: 6.0 mg/kg/injection, schedule: Q01DX009 (ip), vehicle: saline with Tween-80 109 % of control | dose: 25.0 mg/kg/injection, schedule: Q01DX009 (ip), vehicle: saline 95 % of control | dose: 50.0 mg/kg/injection, schedule: Q01DX009 (ip), vehicle: saline 104 % of control | dose: 100.0 mg/kg/injection, schedule: Q01DX009 (ip), vehicle: saline 95 % of control

Clc1ccccc1Nc1c2ccccc2nc2ccccc12
inactive: dose: 100.0 mg/kg/injection, schedule: Q04DX003 (ip), vehicle: saline 100 % of control | dose: 132.0 mg/kg/injection, schedule: Q04DX003 (ip), vehicle: suspension in saline 108 % of control | dose: 200.0 mg/kg/injection, schedule: Q04DX003 (ip), vehicle: suspension in saline 110 % of control | dose: 300.0 mg/kg/injection, schedule: Q04DX003 (ip), vehicle: suspension in saline 115 % of control | dose: 400.0 mg/kg/injection, schedule: Q04DX003 (ip), vehicle: saline 104 % of control

OC1C=C(c2ccccc2)C(O)(c2ccccc2)C1 (centres undefined)
inactive: [6] 100 % of control | [7] 100 % of control | [8] 92 % of control
